For assay [1], the system named is neonatal mouse model of oxygen-induced retinopathy. Put plainly: Neonatal mouse model of oxygen-induced retinopathy, intra-peritoneal injection, pre-retinal nuclei count and retinal flat mounts. The format is in vivo. Particulars: for reduction in preretinal nuclei / preretinal vascularization: 5 g/kg/d intra-peritoneal, twice daily, P12-P17, versus vehicle. The procedure: (§1) In the neonatal mouse model of oxygen-induced retinopathy, 7-day old mice were placed with their nursing dams in a 75% oxygen atmosphere for 5 days. (Smith et al., Invest Ophthalmol Vis Sci., 35(1):101-111 (1994). Mouse pups received twice daily intra-peritoneal injections (50 μl) starting on postnatal day 12 (P12) and continuing through postnatal day 17 (P17). In one experiment, injections included vehicle (0.9% sodium chloride) and the test compounds Ala-gly (5 g/kg/d), Arg-gln dipeptide (5 g/kg/d) and in a second experiment, different doses of Arg-gln (1.0, 2.5 and 5 g/kg/d) were tested.
After the fifth day following return to normoxia (P17), the animals were euthanized by injection of a lethal dose of a combination of ketamine (70 mg/kg body weight) and xylazine (15 mg/kg body weight) followed by cervical dislocation. The eyes were removed and fixed in 4% paraformaldehyde, embedded in paraffin, and sectioned as previously described. (Smith et al., Id.) Pre-retinal nuclei were counted by masked observers. Efficacy of treatment was calculated as the percent average nuclei per section in the eyes of Arg-Gln treated animals versus control animals.
All data represent the mean±SEM. ANOVA was used to evaluate differences among groups, and individual contrasts were done using Student t-tests with Bonferroni correction was used to determine the significance between groups.

Assay [2] relates to vascular endothelial cell growth factor (VEGF) in human retinal pigment epithelial cells (hRPE). Description: VEGF secretion by human retinal pigment epithelial cells (VEGF ELISA of culture medium). The format is cell-based. The procedure:
Human eyes were obtained from the National Disease Resource Interchange within 36 h of death. hRPE cells were prepared and maintained as described by Grant et al., in Curr. Eye Res., 9(4):323-335 (1990), and Enzmann et al., in Transpl Immunol, March 7(1): 9-14 (1999). For cell culture experiments, hRPE from passages 3-5 were used. All tissue culture media was purchased from Mediatech, Inc., Herndon, Fla. hRPE cultures were placed in glutamine-free medium for 24 hrs and then were exposed either to 0, 0.5, 1, 2.5 or 5 mg/ml of Arg-gln dipeptide for 48 hrs. At the end of 48 hrs, VEGF content of the culture medium containing the hRPE cells was measured using the Quantikine® Human VEGF Immunoassay ELISA kit (R&D Systems, Minneapolis, Minn.).
Background: In an ELISA, binding on a coated surface is turned into a signal by an enzyme label.

For assay [3], the system named is neonatal mouse model of oxygen-induced retinopathy. Put plainly: Neonatal mouse model of oxygen-induced retinopathy, gavage (enteral) administration, pre-retinal nuclei count. Particulars: gavage, 1, 2.5 and 5 gm/kg·day, P12-P17, versus vehicle; dose/response, highest effectiveness at 5 gm/kg·day. It is filed as in vivo. From the text:
In the neonatal mouse model of oxygen-induced retinopathy, 7-day old mice were placed with their nursing dams in a 75% oxygen atmosphere for 5 days. Mouse pups received twice a day gavage feedings of dipeptide or control solution (50 microliter) starting on postnatal day 12 (P12) and continuing through postnatal day 17 (P17). Gavage feeds included vehicle (0.9% sodium chloride) and the test compounds and different doses of Arg-Gln (1.0, 2.5 and 5 gm/kg/d). The daily dosage of the dipeptide was divided evenly between the two daily gavage feedings.
After the fifth day following return to normoxia (P17), the animals were euthanized by injection of a lethal dose of a combination of ketamine (70 mg/kg body weight) and xylazine (15 mg/kg body weight) followed by cervical dislocation. The eyes were removed and fixed in 4% paraformaldehyde, embedded in paraffin, and sectioned. Pre-retinal nuclei were counted by masked observers. Efficacy of treatment was calculated as the percent average nuclei per section in the eyes of Arg-Gln treated animals versus control animals.

The test system of the next assay is VEGF mRNA. Put plainly: VEGF mRNA in retina of oxygen-induced retinopathy mice (real-time RT-PCR). It is filed as in vivo, mouse. The conditions noted are these: 5 g/kg/d parenteral, day 5 after removal from high oxygen, P=0.007. The procedure: as §1
For total RNA isolations from retina the animals were sacrificed and the eyes removed. The retina were then dissected away from the eye and stored in RNAlater® buffer (Ambion, Austin, Tex.) at 4° C. for subsequent isolation of protein or RNA.
VEGF protein concentration was determined from isolated mouse retinas using the Quantikine® Human VEGF Immunoassay ELISA kit (R&D Systems, Minneapolis, Minn.). Pups were treated with the 5 g/kg/d dose of dipeptide and at varying time points after the pups were removed from oxygen on day 12. Eyes were enucleated at 0.5, 1 and 5 days post removal from high oxygen (n=14 eyes for each data point). Vehicle treated animals were compared to dipeptide-treated animals. […]
(Quantitative PCR measures a nucleic acid by following its amplification.)

Several values for one entry are separate records, joined by “and”; a condition that tells them apart may be missing. Identical values can stand only once.

As for Ala-gly [reference compound], the “reduction in preretinal nuclei / preretinal vascularization” value in assay [1] was found to be 2±5%.
In the case of arginyl-glutamine dipeptide [Arg-gln], in assay [1] (1.0, 2.5 and 5.0 g/kg/d intra-peritoneal, five days of treatment, P<0.00001), the “effect on preretinal nuclei, all doses” value is “significant reduction”. The “effect on preretinal nuclei at the lowest dose tested (FIG. 2)” value in assay [1] (1 gm/kg·day intra-peritoneal, P12-P17) was “significant reduction”. Further, the “reduction in preretinal nuclei / preretinal vascularization” value in assay [1] is ~80% and 82±7%; in assay [1] (listed as Arg-gln dipeptide), 80%. Besides, the “retinal flat mounts (fluorescently labeled dextran): neovascular tufts and vascular leakage” value in assay [1] (Arg-gln treated pups compared to control dipeptide Ala-gly treated pups) is “reduced neovascular tufts and vascular leakage”. In assay [2] (0-5 mg/ml, 48 hrs), the “effect on VEGF secretion as a function of the level of Arg-gln (FIG. 1)” value was “statistically significant dose-dependent decrease”. Moreover, the “decrease in soluble VEGF expression into the culture medium” value in assay [2] (1.5 mM Arg-gln, 48 hrs exposure after 24 hrs in glutamine-free medium, P=0.002) is reported as 52.3±6.2%. In assay [3], the “average nuclei per section in the eyes (FIG. 4)” value is given as “decreased at all levels of administration”. Further, the “VEGF mRNA in retina versus vehicle-treated pups” value in the assay with VEGF mRNA is recorded as “significant reduction”; with VEGF mRNA (listed as Arg-gln dipeptide), “much lower”.

These data come from patent US20060229256A1, “Enternal administration of arginine and glutamine for abnormal vascular proliferation” (Bristol-Myers Squibb Company, priority 2003, published 2006).
